Results from PubChem BioAssay AID1963985 (Molecular Pharmacology Branch, DTP, NCI, 2024).

Test system: 252836-082-R-J2-PDC tumor spheroids, viability
Experiment: Anticancer human tumor 252836-082-R-J2-PDC patient-derived head and neck squamous cell carcinoma cell line growth inhibition [PI3K]
Conditions: spheroids with HUVEC and MSC; for IC50: curve of first compound; for viability, T/C: stronger effect = lower value
Outline: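 Stroma-containing spheroids: tumor line, pooled-donor HUVEC, hMSC. Treatments: targeted agents with PI3K inhibitors. Dosing: clinically relevant, half-log spacing, 10 microM ceiling without known Cmax. Read-out: cell viability.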
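Also: spheroids exposed to agents for seven days before readout.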
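For viability, T/C in this document: percent of vehicle DMSO control viability so 100% = untreated growth.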

## Cn1cnc2c(F)c(Nc3ccc(Br)cc3Cl)c(C(=O)NOCCO)cc21 + CC(Nc1ncnc2nc[nH]c12)c1cc2cccc(Cl)c2c(=O)n1-c1ccccc1
Second compound 0.0316 µM
  IC50: 2.2 µM
Second compound 0.1 µM
  IC50: 2.8 µM
Second compound 0.316 µM
  IC50: 2.61 µM
Second compound 1 µM
  IC50: 2.1 µM
Second compound 3.16 µM
  IC50: 1.48 µM
Second compound 10 µM
  IC50: 0.923 µM
Second compound 0.0316 µM, first compound 0.00949 µM
  viability, T/C: 102%
Second compound 0.0316 µM, first compound 0.03 µM
  viability, T/C: 76.5%
Second compound 0.0316 µM, first compound 0.0949 µM
  viability, T/C: 81.5%
Second compound 0.0316 µM, first compound 0.3 µM
  viability, T/C: 92.7%
Second compound 0.0316 µM, first compound 0.949 µM
  viability, T/C: 65.5%
Second compound 0.0316 µM, first compound 3 µM
  viability, T/C: 44.2%
Second compound 0.1 µM, first compound 0.00949 µM
  viability, T/C: 89.9%
Second compound 0.1 µM, first compound 0.03 µM
  viability, T/C: 77.2%
Second compound 0.1 µM, first compound 0.0949 µM
  viability, T/C: 88.8%
Second compound 0.1 µM, first compound 0.3 µM
  viability, T/C: 95.3%
Second compound 0.1 µM, first compound 0.949 µM
  viability, T/C: 74.5%
Second compound 0.1 µM, first compound 3 µM
  viability, T/C: 48.4%
Second compound 0.316 µM, first compound 0.00949 µM
  viability, T/C: 88%
Second compound 0.316 µM, first compound 0.03 µM
  viability, T/C: 87.2%
Second compound 0.316 µM, first compound 0.0949 µM
  viability, T/C: 88.6%
Second compound 0.316 µM, first compound 0.3 µM
  viability, T/C: 79.3%
Second compound 0.316 µM, first compound 0.949 µM
  viability, T/C: 77.1%
Second compound 0.316 µM, first compound 3 µM
  viability, T/C: 46%
Second compound 1 µM, first compound 0.00949 µM
  viability, T/C: 89.8%
Second compound 1 µM, first compound 0.03 µM
  viability, T/C: 77.3%
Second compound 1 µM, first compound 0.0949 µM
  viability, T/C: 85.3%
Second compound 1 µM, first compound 0.3 µM
  viability, T/C: 75.6%
Second compound 1 µM, first compound 0.949 µM
  viability, T/C: 72%
Second compound 1 µM, first compound 3 µM
  viability, T/C: 40.4%
Second compound 3.16 µM, first compound 0.00949 µM
  viability, T/C: 82.1%
Second compound 3.16 µM, first compound 0.03 µM
  viability, T/C: 78.5%
Second compound 3.16 µM, first compound 0.0949 µM
  viability, T/C: 64.6%
Second compound 3.16 µM, first compound 0.3 µM
  viability, T/C: 66%
Second compound 3.16 µM, first compound 0.949 µM
  viability, T/C: 61.3%
Second compound 3.16 µM, first compound 3 µM
  viability, T/C: 38.6%
Second compound 10 µM, first compound 0.00949 µM
  viability, T/C: 67.3%
Second compound 10 µM, first compound 0.03 µM
  viability, T/C: 67.1%
Second compound 10 µM, first compound 0.0949 µM
  viability, T/C: 64.2%
Second compound 10 µM, first compound 0.3 µM
  viability, T/C: 54.4%
Second compound 10 µM, first compound 0.949 µM
  viability, T/C: 53.6%
Second compound 10 µM, first compound 3 µM
  viability, T/C: 31.4%

## Cn1nccc1Nc1nccc(-c2ccn(C(CO)c3ccc(Cl)c(F)c3)c(=O)c2)n1 (centres undefined) + Cc1nc(NC(=O)N2CCCC2C(N)=O)sc1-c1ccnc(C(C)(C)C(F)(F)F)c1
Second compound 0.0316 µM
  IC50: > 10 µM
Second compound 0.1 µM
  IC50: > 10 µM
Second compound 0.316 µM
  IC50: > 10 µM
Second compound 1 µM
  IC50: 7.54 µM
Second compound 3.16 µM
  IC50: < 0.0316 µM
Second compound 10 µM
  IC50: < 0.0316 µM
Second compound 0.0316 µM, first compound 0.0316 µM
  viability, T/C: 87%
Second compound 0.0316 µM, first compound 0.1 µM
  viability, T/C: 91%
Second compound 0.0316 µM, first compound 0.316 µM
  viability, T/C: 91%
Second compound 0.0316 µM, first compound 1 µM
  viability, T/C: 97.9%
Second compound 0.0316 µM, first compound 3.16 µM
  viability, T/C: 104%
Second compound 0.0316 µM, first compound 10 µM
  viability, T/C: 66%
Second compound 0.1 µM, first compound 0.0316 µM
  viability, T/C: 87.4%
Second compound 0.1 µM, first compound 0.1 µM
  viability, T/C: 85.7%
Second compound 0.1 µM, first compound 0.316 µM
  viability, T/C: 79.8%
Second compound 0.1 µM, first compound 1 µM
  viability, T/C: 90.6%
Second compound 0.1 µM, first compound 3.16 µM
  viability, T/C: 81.3%
Second compound 0.1 µM, first compound 10 µM
  viability, T/C: 62.4%
Second compound 0.316 µM, first compound 0.0316 µM
  viability, T/C: 74.7%
Second compound 0.316 µM, first compound 0.1 µM
  viability, T/C: 66.6%
Second compound 0.316 µM, first compound 0.316 µM
  viability, T/C: 81.7%
Second compound 0.316 µM, first compound 1 µM
  viability, T/C: 72.8%
Second compound 0.316 µM, first compound 3.16 µM
  viability, T/C: 79.4%
Second compound 0.316 µM, first compound 10 µM
  viability, T/C: 57.6%
Second compound 1 µM, first compound 0.0316 µM
  viability, T/C: 70.8%
Second compound 1 µM, first compound 0.1 µM
  viability, T/C: 61.9%
Second compound 1 µM, first compound 0.316 µM
  viability, T/C: 63.2%
Second compound 1 µM, first compound 1 µM
  viability, T/C: 64.6%
Second compound 1 µM, first compound 3.16 µM
  viability, T/C: 58%
Second compound 1 µM, first compound 10 µM
  viability, T/C: 47.3%
Second compound 3.16 µM, first compound 0.0316 µM
  viability, T/C: 42.2%
Second compound 3.16 µM, first compound 0.1 µM
  viability, T/C: 46.1%
Second compound 3.16 µM, first compound 0.316 µM
  viability, T/C: 56.9%
Second compound 3.16 µM, first compound 1 µM
  viability, T/C: 45%
Second compound 3.16 µM, first compound 3.16 µM
  viability, T/C: 41.9%
Second compound 3.16 µM, first compound 10 µM
  viability, T/C: 33.5%
Second compound 10 µM, first compound 0.0316 µM
  viability, T/C: 34.4%
Second compound 10 µM, first compound 0.1 µM
  viability, T/C: 37.2%
Second compound 10 µM, first compound 0.316 µM
  viability, T/C: 34.3%
Second compound 10 µM, first compound 1 µM
  viability, T/C: 23.6%
Second compound 10 µM, first compound 3.16 µM
  viability, T/C: 24.5%
Second compound 10 µM, first compound 10 µM
  viability, T/C: 11.8%
